According to patent US20090215760A1, “SYNERGISTIC INSECTICIDE MIXTURES” (priority 2004, published 2009):

What was measured:
Format in all cases: in vivo
Myzus persicae = Myzus persicae test, cabbage leaf dip; conditions: single active compound
From the text: (§1) The action expected for a given combination of two active components can be calculated as follows (cf. Colby, S. R., “Calculating Synergistic and Antagonistic Responses of Herbicide Combinations”, Weeds 15, pages 20-22, 1967):
(§2) if • X stands for the death rate expressed as % of the untreated controls on application of active component A at an applied amount of m ppm • Y for the death rate expressed as % of the untreated controls on application of active component B at an applied amount of n ppm • E for the death rate expressed as % of the untreated controls on application of active components A and B at applied amount of m and n ppm • then
(§3) If the actual insecticidal death rate is greater than calculated, the combination is superadditive in its death rate, i.e. there is a synergistic effect. In this case the death rate actually observed must be greater than the value for the expected death rate (E) calculated from the above equation.
(§4) To prepare a suitable formulation of the active material 1 part by weight of the active material is mixed with the given amounts of solvent and emulsifier and the concentrate is diluted to the desired concentration with water containing the emulsifier.
Cabbage leaves (Brassica oleracea) which are highly infected by the green peach aphid (Myzus persicae) are treated by dipping into the active mixture formulation of the desired concentration.
After the desired time the death rate is calculated as %, where 100% means that all aphids were killed, 0% that no aphids were killed. The death rates were calculated by the Colby equation.

[1] = system: Plutella xylostella, normal sensitive strain; experiment: Plutella xylostella test (normal sensitive strain), cabbage leaf dip; conditions: single active compound
From the text: as §1, §2, §3
Plutella xylostella Test (Normal Sensitive Strain)
as §4
Cabbage leaves (Brassica oleracea) are treated by dipping into the active mixture formulation at the desired concentration and infected with the caterpillar of the diamondback (cabbage) moth (Plutella xylostella, normal sensitive strain) while the leaves are still moist.
(§5) After the desired time the death rate is calculated as %, where 100% means that all caterpillars were killed, 0% that no caterpillars were killed. The death rates are calculated by the Colby equation.

Spodoptera frugiperda = Spodoptera frugiperda test, cabbage leaf dip; conditions: 4 ppm, single active compound
From the text: as §1, §2, §3
Spodoptera frugiperda Test […]
as §5

[2] = 4 ppm, 6 d (Table B, clothianidin series)

For `CN/C(=N\[N+](=O)[O-])NCc1cnc(Cl)s1` [Clothianidin], which “Death rate in % after 6 d” value (Myzus persicae; [2]) is on record?
The value was 0%.

What about the “Death rate in % after 6 d” value ([1]; 4 ppm) of the same compound?
Its value is 10%.

With `CC[S+]([O-])c1c(C#N)nn(-c2c(Cl)cc(C(F)(F)F)cc2Cl)c1N` (stereo not drawn) [Ethiprole, ethiprole] as the compound, how does the “Death rate in % after 6 d” value (Myzus persicae; 0.8 ppm, 6 d (Table B, imidacloprid series)) read?
Its value is 0%.

What about the “Death rate in % after 6 d” value (Myzus persicae; [2]) of the same compound?
The value was 0%.

And the “Death rate in % after 6 d” value (Myzus persicae; 4 ppm, 6 d (Table B, thiacloprid series))?
The value was 10%.

What about the “Death rate in % after 6 d” value ([1]; 4 ppm) of the same compound?
The value was 0%.

What about the “Death rate in % after 4 d” value ([1]; 20 ppm) of the same compound?
Its value is 35%.

What about the “Death rate in % after 6 d” value (Spodoptera frugiperda) of the same compound?
The value was 0%.

How did the “Death rate in % after 6 d” value (Myzus persicae; 0.16 ppm, 6 d (Table B, imidacloprid series)) turn out when `O=[N+]([O-])/N=C1\NCCN1Cc1ccc(Cl)nc1` [Imidacloprid] was run?
The value was 0%.

What about the “Death rate in % after 6 d” value (Spodoptera frugiperda) of the same compound?
Its value is 15%.

With `N#C/N=C1\SCCN1Cc1ccc(Cl)nc1` [Thiacloprid] as the compound, how does the “Death rate in % after 6 d” value (Myzus persicae; 0.8 ppm, 6 d (Table B, thiacloprid series)) read?
Its value is 15%.

And the “Death rate in % after 4 d” value ([1]; 4 ppm)?
Its value is 0%.
